Data as given in publication PMC7913460, “Targeting hydroxycinnamoyl CoA: shikimate hydroxycinnamoyl transferase for lignin modification in Brachypodium distachyon” (Biotechnology for Biofuels, 2021).

How the values were obtained:
Type in all cases: biochemical, Medicago truncatula
MtHCT1 [1] = system: T1, MtHCT1; assay: HPLC product assay, forward HCT reaction; conditions: 500 µM shikimic acid, 100 mM sodium phosphate pH 7.5, 500 µM DTT; kcat apparent
T1 construct: gene HCT1
Source text: HPLC product assay, forward HCT reaction on MtHCT1

MtHCT2 [2] = system: T2, MtHCT2; assay: HPLC product assay, forward HCT reaction; conditions: 500 µM shikimic acid, 100 mM sodium phosphate pH 7.5, 500 µM DTT; kcat apparent
T2 construct: gene HCT2
Source text: HPLC product assay, forward HCT reaction on MtHCT2

MtHCT1 [3] = system: T1, MtHCT1; assay: HPLC product assay, reverse HCT reaction; conditions: 500 µM CoA, 100 mM sodium phosphate pH 7.5, 500 µM DTT; kcat apparent; substrate tested 20 to 400 µM
Source text: HPLC product assay, reverse HCT reaction on MtHCT1

MtHCT2 [4] = system: T2, MtHCT2; assay: HPLC product assay, reverse HCT reaction; conditions: 500 µM CoA, 100 mM sodium phosphate pH 7.5, 500 µM DTT; kcat apparent; substrate tested 20 to 400 µM
Source text: HPLC product assay, reverse HCT reaction on MtHCT2

| Km (MtHCT1 [1]) [µM] | Km (MtHCT2 [2]) [µM] | Km (MtHCT1 [3]) [µM] | Km (MtHCT2 [4]) [µM] | SMILES |
| --- | --- | --- | --- | --- |
| 40.6 | 44.3 |  |  | CC(C)(COP(=O)(O)OP(=O)(O)OC[C@H]1O[C@@H](n2cnc3c(N)ncnc32)[C@H](O)[C@@H]1OP(=O)(O)O)[C@@H](O)C(=O)NCCC(=O)NCCSC(=O)/C=C/c1ccc(O)cc1 [4-coumaroyl CoA] |
|  |  | 148 | 139 | O=C(/C=C/c1ccc(O)c(O)c1)O[C@@H]1CC(C(=O)O)=C[C@@H](O)[C@H]1O [caffeoyl shikimate] |
